Measurements reported in paper PMC4290623, “Homopharma: A new concept for exploring the molecular binding mechanisms and drug repurposing” (BMC Genomics, 2014).
pIC50: −log10 of the molar value. One block for each compound: values may come before it.

Tests used:
Experiment in all cases: In vitro enzymatic profiling, HotSpot assay platform
Assay type in all cases: biochemical
[1] = target: T1, IGF1R (Homo sapiens, UniProt P08069); settings: inhibitor 10 μM, ATP 10 μM; for pIC50: duplicate, read-out: IC50 (bioactivity in the kinome picture)
T1 construct: purchased Reaction Biology Corporation
T1 sequence (P08069 31-1367): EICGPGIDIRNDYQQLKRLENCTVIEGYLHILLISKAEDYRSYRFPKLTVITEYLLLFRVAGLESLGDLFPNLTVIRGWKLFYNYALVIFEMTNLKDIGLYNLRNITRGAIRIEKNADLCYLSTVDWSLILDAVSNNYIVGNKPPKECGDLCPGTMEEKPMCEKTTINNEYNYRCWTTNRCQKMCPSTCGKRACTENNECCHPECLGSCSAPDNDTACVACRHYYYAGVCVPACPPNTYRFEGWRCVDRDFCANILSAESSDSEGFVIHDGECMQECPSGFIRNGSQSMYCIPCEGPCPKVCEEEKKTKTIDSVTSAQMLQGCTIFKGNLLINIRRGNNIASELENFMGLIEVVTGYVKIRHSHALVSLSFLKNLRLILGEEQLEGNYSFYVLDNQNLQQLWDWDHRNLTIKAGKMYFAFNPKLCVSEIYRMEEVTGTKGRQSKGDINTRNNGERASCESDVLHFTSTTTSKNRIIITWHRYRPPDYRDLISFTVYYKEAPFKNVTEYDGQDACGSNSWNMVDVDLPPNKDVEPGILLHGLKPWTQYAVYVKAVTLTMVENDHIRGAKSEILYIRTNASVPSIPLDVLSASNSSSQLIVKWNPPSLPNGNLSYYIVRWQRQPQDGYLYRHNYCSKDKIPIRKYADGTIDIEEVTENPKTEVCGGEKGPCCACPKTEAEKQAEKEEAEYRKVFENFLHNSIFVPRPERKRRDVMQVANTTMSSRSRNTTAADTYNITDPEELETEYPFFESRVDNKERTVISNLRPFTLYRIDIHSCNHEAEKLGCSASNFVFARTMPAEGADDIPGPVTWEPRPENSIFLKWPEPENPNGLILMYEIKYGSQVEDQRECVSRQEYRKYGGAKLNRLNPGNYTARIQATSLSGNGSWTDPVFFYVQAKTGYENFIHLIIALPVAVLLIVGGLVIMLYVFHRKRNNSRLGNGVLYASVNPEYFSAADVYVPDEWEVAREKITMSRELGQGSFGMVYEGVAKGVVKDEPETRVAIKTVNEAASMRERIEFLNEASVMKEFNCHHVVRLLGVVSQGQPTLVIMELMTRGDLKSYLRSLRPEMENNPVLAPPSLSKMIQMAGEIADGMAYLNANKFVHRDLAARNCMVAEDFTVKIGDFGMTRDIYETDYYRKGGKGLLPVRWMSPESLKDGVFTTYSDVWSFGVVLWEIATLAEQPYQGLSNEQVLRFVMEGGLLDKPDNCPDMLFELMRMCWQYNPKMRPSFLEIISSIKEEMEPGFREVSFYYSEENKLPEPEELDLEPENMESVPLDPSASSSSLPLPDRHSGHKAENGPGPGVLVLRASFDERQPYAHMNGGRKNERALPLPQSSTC
Procedure: (§1) In vitro enzymatic profiling of the 32 member kinase panel was performed at Reaction Biology Corporation (http://www.reactionbiology.com, Malvern, PA) using the "HotSpot" assay platform. Each kinase activity assay was performed in duplicate with inhibitor concentration of 10 μM and an ATP concentration of 10 μM.

[2] = target: T2, FGFR1 (Homo sapiens, UniProt P11362); settings: inhibitor 10 μM, ATP 10 μM; for pIC50: duplicate, read-out: IC50 (bioactivity in the kinome picture)
T2 construct: purchased Reaction Biology Corporation
T2 sequence (P11362 22-822): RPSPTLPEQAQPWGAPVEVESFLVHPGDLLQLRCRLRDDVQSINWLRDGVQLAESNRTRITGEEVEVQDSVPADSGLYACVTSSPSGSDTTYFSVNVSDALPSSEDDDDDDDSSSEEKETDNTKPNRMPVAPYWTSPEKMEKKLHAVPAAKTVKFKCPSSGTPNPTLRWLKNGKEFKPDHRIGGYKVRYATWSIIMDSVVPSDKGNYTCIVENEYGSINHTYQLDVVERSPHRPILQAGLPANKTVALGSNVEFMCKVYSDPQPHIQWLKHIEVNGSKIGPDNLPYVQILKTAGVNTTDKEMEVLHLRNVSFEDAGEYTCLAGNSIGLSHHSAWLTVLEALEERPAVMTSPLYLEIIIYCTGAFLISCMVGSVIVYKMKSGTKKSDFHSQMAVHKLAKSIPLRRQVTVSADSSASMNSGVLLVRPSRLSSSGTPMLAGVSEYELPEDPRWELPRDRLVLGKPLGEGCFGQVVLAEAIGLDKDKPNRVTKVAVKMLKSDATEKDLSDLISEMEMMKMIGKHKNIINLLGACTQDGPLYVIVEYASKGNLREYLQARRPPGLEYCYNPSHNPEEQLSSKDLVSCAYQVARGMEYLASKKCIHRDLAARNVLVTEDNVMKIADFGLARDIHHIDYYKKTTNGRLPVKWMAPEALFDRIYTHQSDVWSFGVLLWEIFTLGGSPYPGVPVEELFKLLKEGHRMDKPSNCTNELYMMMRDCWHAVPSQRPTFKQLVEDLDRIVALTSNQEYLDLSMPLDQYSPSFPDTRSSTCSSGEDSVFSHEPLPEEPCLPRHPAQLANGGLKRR
Procedure: as §1

[3] = target: T3, INSR (Homo sapiens, UniProt P06213); settings: inhibitor 10 μM, ATP 10 μM, duplicate, read-out: IC50 (bioactivity in the kinome picture)
T3 construct: purchased Reaction Biology Corporation
T3 sequence (P06213 28-1382): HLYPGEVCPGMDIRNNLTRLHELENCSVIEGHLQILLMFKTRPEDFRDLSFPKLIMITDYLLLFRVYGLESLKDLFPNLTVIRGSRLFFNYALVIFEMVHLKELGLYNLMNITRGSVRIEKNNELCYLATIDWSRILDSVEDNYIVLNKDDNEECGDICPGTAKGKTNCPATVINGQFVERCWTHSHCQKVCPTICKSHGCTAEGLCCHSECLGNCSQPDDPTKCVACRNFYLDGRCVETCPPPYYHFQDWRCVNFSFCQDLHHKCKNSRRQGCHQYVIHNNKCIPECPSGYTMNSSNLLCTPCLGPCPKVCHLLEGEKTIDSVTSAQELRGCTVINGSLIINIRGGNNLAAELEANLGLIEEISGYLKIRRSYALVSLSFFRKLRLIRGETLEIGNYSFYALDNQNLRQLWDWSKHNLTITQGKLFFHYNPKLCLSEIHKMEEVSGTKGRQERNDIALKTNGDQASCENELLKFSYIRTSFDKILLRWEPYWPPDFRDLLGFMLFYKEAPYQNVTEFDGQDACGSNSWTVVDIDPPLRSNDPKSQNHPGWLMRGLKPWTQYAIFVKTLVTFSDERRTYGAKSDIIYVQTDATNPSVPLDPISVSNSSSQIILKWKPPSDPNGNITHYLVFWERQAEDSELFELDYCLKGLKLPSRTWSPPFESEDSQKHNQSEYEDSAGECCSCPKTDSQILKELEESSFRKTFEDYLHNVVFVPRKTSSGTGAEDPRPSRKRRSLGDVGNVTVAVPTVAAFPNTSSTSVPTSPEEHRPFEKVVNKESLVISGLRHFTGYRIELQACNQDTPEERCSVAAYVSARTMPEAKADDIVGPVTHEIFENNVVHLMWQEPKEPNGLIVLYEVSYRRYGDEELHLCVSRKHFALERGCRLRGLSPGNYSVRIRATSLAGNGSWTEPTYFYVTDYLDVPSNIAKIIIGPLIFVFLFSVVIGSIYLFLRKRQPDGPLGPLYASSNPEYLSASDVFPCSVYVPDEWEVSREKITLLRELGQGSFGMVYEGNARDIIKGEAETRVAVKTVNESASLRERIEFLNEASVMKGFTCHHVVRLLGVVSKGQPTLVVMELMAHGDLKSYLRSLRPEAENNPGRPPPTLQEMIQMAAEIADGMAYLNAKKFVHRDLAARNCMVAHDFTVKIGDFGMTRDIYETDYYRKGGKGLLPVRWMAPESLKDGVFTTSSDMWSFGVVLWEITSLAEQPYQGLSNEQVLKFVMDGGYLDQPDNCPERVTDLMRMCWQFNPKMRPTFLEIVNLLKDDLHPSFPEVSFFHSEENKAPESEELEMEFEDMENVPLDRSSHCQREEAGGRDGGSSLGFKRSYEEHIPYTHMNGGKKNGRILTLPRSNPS
Procedure: as §1

[4] = target: T4, CSNK2A1 (Homo sapiens, UniProt P68400); settings: inhibitor 10 μM, ATP 10 μM, duplicate, read-out: IC50 (bioactivity in the kinome picture)
T4 construct: purchased Reaction Biology Corporation
T4 sequence (P68400 whole entry): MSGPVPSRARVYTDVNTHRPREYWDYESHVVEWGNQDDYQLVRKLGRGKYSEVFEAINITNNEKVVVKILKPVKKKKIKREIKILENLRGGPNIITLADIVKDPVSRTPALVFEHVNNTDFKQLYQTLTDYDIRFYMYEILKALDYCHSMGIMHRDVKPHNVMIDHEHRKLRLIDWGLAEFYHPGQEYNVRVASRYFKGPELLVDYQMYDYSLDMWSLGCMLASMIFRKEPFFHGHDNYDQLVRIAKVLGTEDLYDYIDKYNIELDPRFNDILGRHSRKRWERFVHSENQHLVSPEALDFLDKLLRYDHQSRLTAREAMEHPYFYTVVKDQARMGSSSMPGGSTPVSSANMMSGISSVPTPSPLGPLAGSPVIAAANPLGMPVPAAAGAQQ
Procedure: In vitro enzymatic profiling of the 32 member kinase panel was performed at Reaction Biology Corporation (http://www.reactionbiology.com, Malvern, PA) using the "HotSpot" assay platform. […]

[5] = target: T5, LIMK1 (Homo sapiens, UniProt P53667); settings: inhibitor 10 μM, ATP 10 μM
T5 construct: purchased Reaction Biology Corporation
Procedure: as §1

[6] = target: T6, CHEK2 (Homo sapiens, UniProt O96017); settings: inhibitor 10 μM, ATP 10 μM
T6 construct: purchased Reaction Biology Corporation
Procedure: as §1

[7] = target: T7, KIT (Homo sapiens, UniProt P10721); settings: inhibitor 10 μM, ATP 10 μM
T7 construct: purchased Reaction Biology Corporation
Procedure: as §1

[8] = target: T8, SRC (Homo sapiens, UniProt P12931); settings: inhibitor 10 μM, ATP 10 μM
T8 construct: purchased Reaction Biology Corporation
T8 sequence (P12931 whole entry): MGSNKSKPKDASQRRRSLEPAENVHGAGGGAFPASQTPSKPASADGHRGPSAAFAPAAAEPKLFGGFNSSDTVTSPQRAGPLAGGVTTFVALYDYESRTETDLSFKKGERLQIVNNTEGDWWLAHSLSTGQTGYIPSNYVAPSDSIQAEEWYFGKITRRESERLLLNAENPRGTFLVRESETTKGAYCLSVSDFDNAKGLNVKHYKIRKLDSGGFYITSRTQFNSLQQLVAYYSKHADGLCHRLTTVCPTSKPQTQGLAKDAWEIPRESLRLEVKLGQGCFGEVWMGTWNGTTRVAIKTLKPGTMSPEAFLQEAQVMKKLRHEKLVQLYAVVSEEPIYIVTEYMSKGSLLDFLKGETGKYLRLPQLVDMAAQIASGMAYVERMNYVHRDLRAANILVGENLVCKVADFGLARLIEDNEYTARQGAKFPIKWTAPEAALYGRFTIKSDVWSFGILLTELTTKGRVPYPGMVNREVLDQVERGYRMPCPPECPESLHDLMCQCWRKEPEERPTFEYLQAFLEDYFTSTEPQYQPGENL
Procedure: as §1

[9] = target: T9, EGFR (Homo sapiens, UniProt P00533); settings: inhibitor 10 μM, ATP 10 μM
T9 construct: purchased Reaction Biology Corporation
Procedure: as §1

[10] = target: T10, AKT2 (Homo sapiens, UniProt P31751); settings: inhibitor 10 μM, ATP 10 μM
T10 construct: purchased Reaction Biology Corporation
Procedure: as §1

[11] = target: T11, LCK (Homo sapiens, UniProt P06239); settings: inhibitor 10 μM, ATP 10 μM
T11 construct: purchased Reaction Biology Corporation
Procedure: as §1

[12] = target: T12, MAPK3 (Homo sapiens, UniProt P27361); settings: inhibitor 10 μM, ATP 10 μM
T12 construct: purchased Reaction Biology Corporation
Procedure: as §1

[13] = target: T13, CAMK2G (Homo sapiens, UniProt Q13555); settings: inhibitor 10 μM, ATP 10 μM, duplicate, read-out: IC50 (bioactivity in the kinome picture)
T13 construct: purchased Reaction Biology Corporation
T13 sequence (Q13555 whole entry): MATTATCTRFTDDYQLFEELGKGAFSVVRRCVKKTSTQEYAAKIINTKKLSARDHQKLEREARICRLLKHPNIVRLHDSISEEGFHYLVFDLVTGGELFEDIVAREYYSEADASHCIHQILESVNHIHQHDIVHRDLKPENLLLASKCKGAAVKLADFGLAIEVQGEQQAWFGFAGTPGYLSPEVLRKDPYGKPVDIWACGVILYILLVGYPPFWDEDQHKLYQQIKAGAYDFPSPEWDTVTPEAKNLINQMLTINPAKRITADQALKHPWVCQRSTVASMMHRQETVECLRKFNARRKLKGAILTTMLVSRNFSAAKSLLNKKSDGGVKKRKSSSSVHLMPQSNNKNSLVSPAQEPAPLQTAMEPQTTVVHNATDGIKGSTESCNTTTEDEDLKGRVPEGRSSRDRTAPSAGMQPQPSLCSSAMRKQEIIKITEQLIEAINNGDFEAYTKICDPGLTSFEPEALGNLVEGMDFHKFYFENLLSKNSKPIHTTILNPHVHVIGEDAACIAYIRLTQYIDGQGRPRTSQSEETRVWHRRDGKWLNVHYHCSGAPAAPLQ
Procedure: In vitro enzymatic profiling of the 32 member kinase panel was performed at Reaction Biology Corporation (http://www.reactionbiology.com, Malvern, PA) using the "HotSpot" assay platform. Each kinase activity assay was performed in duplicate with inhibitor concentration of 10 μM and an ATP concentration of 10 μM. […] Another compound JMY84 could also be used as drug candidates of colorectal cancer due to its effects on CHEK2, LIMK1, and FGFR1 (Figures 5D and 5E).

SMILES: O=c1cc(-c2ccccc2)oc2cc(O)c(O)c(O)c12 [JMY51]
pIC50 [1]: ~6.00
pIC50 [2]: ~5.52
pIC50 [3]: ~5.70

pIC50 [4]: ~6.00
effect on kinase (in words) [5]: effects
effect on kinase (in words) [6]: effects
effect on kinase (in words) [2]: effects
SMILES: O=c1c(O)c(-c2ccc(OC3OC(CO)C(O)[C@@H](O)C3O)c(O)c2)oc2cc(O)cc(O)c12 (stereo partly drawn) [JMY84]

inhibitory activity (in words) [7]: inhibitory activities
inhibitory activity (in words) [8]: inhibitory activities
pIC50 ([8]; duplicate, read-out: IC50 (bioactivity in the kinome picture)): ~6.30
inhibitory effect (in words) [9]: inhibitory effects
inhibitory effect (in words) [10]: inhibitory effects
inhibitory effect (in words) [1]: inhibitory effects
pIC50 [1]: ~7.00
inhibitory activity (in words) [11]: inhibitory activities
inhibitory effect (in words) [12]: inhibitory effects
SMILES: O=C(Oc1cc(O)c2c(c1)OC(c1ccc(O)c(O)c1)C(O)C2)c1cc(O)c(O)c(O)c1 (stereo not drawn) [JMY65]

pIC50 [13]: ~6.00
pIC50 [2]: ~6.00
SMILES: O=c1c(O)c(-c2ccc(O)c(O)c2)oc2cc(O)cc(O)c12 [Quercetin, quercetin, reference compound]
